Entries after “also recorded” stand apart in the source; their conditions may differ. Where two headings read alike, the source gives them in different places. Non-standard residues stand in square brackets, D forms with d. Residues, ends and D or L forms follow the SMILES beside them. β3hI = CC[C@H](C)[C@H](N)CC(=O)O; β3hE = N[C@@H](CCC(=O)O)CC(=O)O; β3hA = C[C@H](N)CC(=O)O
What was measured:
Mia PaCa2 = type: cell-based, human; settings: read-out: EC50 for cell viability
Protocol: (§1) Various indicated cell lines were plated at low density (˜500-1000 cells per well) in a 96-well format. 12 hours post-plating, media was supplemented with either PBS vehicle, or indicated dosage, and cells were allowed to grow for ˜5.5 days. Cells were subsequently fixed for 1 hour with a 3.7% formaldehyde solution in PBS, and stained with Syto-60 nucleic acid stain (MANUFACTURER) in solution (1:2000 Syto-60, 0.5% Triton X-100, 100 ug/mL RNAse-A, in PBS). Syto-60 stained cells were subjected to quantitative imaging in 96-well plates (Odyssey® Imager, LI-COR Biosciences; excitation: 652; emission: 678) with a 3.0 mm z-axis offset to the scan-head to get the cellular nuclei in the optimal focal plane for quantification. Absolute fluorescence intensity was normalized to the vehicle control for each respective cell line at each dose. Normalized values were visualized on a semilog plot, and data was subjected to non-linear sigmoidal dose-response to determine half-maximal effective concentration (EC50) using GraphPad Prism version 6.00 for OSX, (GraphPad Software, La Jolla Calif. USA, www.graphpad.com).
(§2) To investigate the functional consequence of inhibiting Ras activation in the context of oncogenic mutations, we examined the effect of α3β-HBSSOS on the growth and viability of cancer cells of different origins. We selected a panel of six human cancer cell lines derived from the pancreas, colon, and bladder, which harbor a variety of oncogenic proteins including mutant KRas (Table 3).
(§3) α3β-HBSSOS reduces cell viability in a dose dependent manner, with the effect spanning over four orders of magnitude. We divided the cell lines into two groups with respect to EC50 values (Table 3). […] We hypothesized that differential cellular uptake may account for the different potency of the peptides between the oncogenic and wild type RTK-Ras cell lines.

J82 = type: cell-based, human; settings: read-out: EC50 for cell viability
Protocol: as §1, §2, §3

HCT116 = type: cell-based, human; settings: read-out: EC50 for cell viability
Protocol: as §1, §2, §3

BxPc3 = type: cell-based, human; settings: BxPc3, Ras WT; read-out: EC50 for cell viability
Protocol: as §1, §2, §3

CaCo2 = type: cell-based, human; settings: CaCo2, Ras WT; read-out: EC50 for cell viability
Protocol: as §1, §2, §3

SW780 = type: cell-based, human; settings: SW780, Ras WT; read-out: EC50 for cell viability
Protocol: as §1, §2, §3

[1] = system: mutant Ras and wild type Ras cancer cell lines; assay: Analysis of DNA content by FACS (cell cycle); type: cell-based
Protocol: DNA content was determined by flow cytometric analysis using TO-PRO®-3 Iodide (Life Technologies Corp., Grand Island, N.Y.) to stain nucleic acids. Cell lines were plated at ˜40-50% confluency in multi-well format and 12-hours post plating were treated with either HBS helices or vehicle control at the indicated dose. After the indicated incubation period the culture media was collected, and the cells were trypsinized, pooled with the media, pelleted in a clinical centrifuge, resuspended in a small volume of PBS, and added dropwise to 100% ice-cold ethanol while vortexing at low speed, resulting in a final concentration of ˜70% ethanol. Cells were fixed in this solution on ice for 24 hours. Subsequently cells were pelleted at 4° C., washed once with a solution of 1% BSA in PBS, and resuspended in a solution of 1% BSA, 0.5% Triton X-100, 1:5000 TO-PRO®-3 Iodide (Life Technologies Corp., Grand Island, N.Y.). Results and Discussion of Examples 1-9
We next sought to gain mechanistic insight into the attenuated growth and viability of cancer cells that is observed upon inhibition of Sos-mediated Ras activation with α3β-HBSSOS. Because of the link between Ras signaling and cell cycle progression, we reasoned that DNA content analysis would elucidate Ras-mediated effects on cell growth. […]

HRas^(1-166) = molecular target: T1, HRas^(1-166) (Homo sapiens, UniProt P01112); assay: In vitro pulldown binding assay with 6×His-tagged HRas 1-166 and fluorescein-tagged SOS peptides
T1 construct: 6×His-tagged HRas WT 1-166; made in house
Protocol: Recombinantly purified 6×His-tagged HRas WT 1-166 was incubated with Ni-NTA sepharose beads, generating recombinant Ras on solid support. FITC labeled HBS peptides were incubated in the presence of recombinant HRas-6×His/Ni-NTA Sepharose complex at 4° C. for 1 hour. Beads complexes were pelleted and washed 5× with protein buffer (20 mM Tris-HCl pH 7.6, 50 mM NaCl, 4 mM EDTA, 10 mM MgCl2), resuspended in reducing buffer (126 mM Tris-HCL pH 6.8, 20% glycerol, 4% SDS, 0.02% bromophenol blue, 2.5% β-mercaptoethanol), boiled for 10 minutes at 95° C., and subjected to SDS-PAGE with an acrylamide percentage of 20% to allow for sufficient resolution of the HBS helices. SDS-PAGE gels were imaged using an ImageQuant™ LAS 4000 biomolecular imager (GE Healthcare, Piscataway, N.J., USA). Quantification of fluorescence by FITC-HBS helices in gel was determined by manufacturer provided ImageQuant™ TL software. Raw values were normalized to total input and plotted on a semilog graph with GraphPad Prism version 6.00 for OSX (GraphPad Software, La Jolla Calif. USA, www.graphpad.com).
The binding affinity of the designed compounds for Ras was determined using in vitro pulldown assays with recombinantly purified 6×His-tagged HRas^(1-166) and fluorescein-tagged SOS peptides (FIGS. 8 and 9, and Table 2). […] Although, the exact binding mode of the peptides and the conformational state of Ras is not known, the enhanced affinity of the α3β-HBSSOS compound likely reflects a combination of both the higher conformational stability of the HBS α3β construct and the exact Ras conformation it can access. […] Because, the SOS analogs can bind nucleotide-free and bound Ras, we hypothesize that the compounds are accessing an intermediate switch conformation.

mutant Ras cells = assay: Phosphorylated H2AX and cleaved caspace-3 immunofluorescence; type: cell-based; settings: only mutant Ras cells
Text: We next sought to gain mechanistic insight into the attenuated growth and viability of cancer cells that is observed upon inhibition of Sos-mediated Ras activation with α3β-HBSSOS. Because of the link between Ras signaling and cell cycle progression, we reasoned that DNA content analysis would elucidate Ras-mediated effects on cell growth. […] This cellular response to pharmacological inhibition of Ras activation by α3β-HBSSOS phenocopies the effects of the post-transcriptional silencing of wild type Ras and Sos in oncogenic Ras-driven cancer. These corroborant genetic and pharmacological cell viability defects support the therapeutic strategy of targeting wild type Ras activation.

oncogenic KRas = molecular target: T2, oncogenic KRas (Homo sapiens, UniProt P01116, G12C); assay: RBD-pulldown of GTP-loaded Ras in MIA PaCa-2 cells; type: cell-based; settings: 48 hours
T2 construct: levels of GTP-loaded endogenous HRas, KRas, and NRas proteins; endogenous in cells; host or cells: MIA PaCa-2
Protocol: (§4) To determine the effect of α3β-HBSSOS on Sos-mediated Ras activation in cells we treated MIA PaCa-2 cells, which harbor oncogenic KRas, with α3β-HBSSOS, control peptides, or vehicle control for 48 hours. Utilizing the RBD-pulldown assay we determined the levels of GTP-loaded endogenous HRas, KRas, and NRas proteins. As expected, MIA PaCa-2 cells display GTP-loading of all isoforms at steady state when treated with the vehicle control (FIGS. 11A-B).

wild type HRas = molecular target: T3, wild type HRas (Homo sapiens, UniProt P01112); assay: RBD-pulldown of GTP-loaded Ras in MIA PaCa-2 cells; type: cell-based; settings: 48 hours
T3 construct: levels of GTP-loaded endogenous HRas, KRas, and NRas proteins; endogenous in cells; host or cells: MIA PaCa-2
Protocol: as §4

wild type NRas = molecular target: T4, wild type NRas (Homo sapiens, UniProt P01111); assay: RBD-pulldown of GTP-loaded Ras in MIA PaCa-2 cells; type: cell-based; settings: 48 hours
T4 construct: levels of GTP-loaded endogenous HRas, KRas, and NRas proteins; endogenous in cells; host or cells: MIA PaCa-2
Protocol: as §4

[2] = molecular target: Sos-mediated Ras nucleotide exchange (Homo sapiens, UniProt P01112); assay: In vitro nucleotide exchange (mant-GDP, SOS-Cat); type: biochemical
Protocol: Exchange assays were performed by incubating 1 μM of recombinant wild type Ras protein with 1 μM mant-GDP in exchange buffer (20 mM Tris-HCl pH 7.6, 50 mM NaCl, 4 mM EDTA) for 5 minutes on ice. The mixture was then supplemented with 10 mM MgCl2 and incubated for an additional 6 hours at 4° C. Exchange reaction was initiated by either the addition of 100 μM-unlabeled GDP, (negative control) or the addition of 100 μM-unlabeled GDP in the presence of 1 μM SOS-Cat. The levels of fluorescence anisotropy were measured on a Perkin Elmer fluorescence spectrometer (model LS50B) with an excitation wavelength of 370 nm and emission detection at 430 nm. To test the inhibitory properties of the HBSSOS helices, indicated peptides were added to the mant-loaded Ras at a concentration of 1 uM and allowed to stand for 10 minutes at 4° C. before the addition of SosCat. Dissociation rates (Koff values) were determined by fitting raw data to a first-order exponential decay function using GraphPad Prism version 6.00 for OSX (GraphPad Software, La Jolla Calif. USA, www.graphpad.com). Data was normalized to t=0, converted to a percentage, and plotted as a curve for ease of visualization.
We evaluated inhibition of nucleotide exchange under stringent conditions consisting of 1 μM each of Ras, SOS, and the inhibitor.

[3] = system: panel of six human cancer cell lines; assay: Growth and viability of a panel of six human cancer cell lines; type: cell-based; settings: for effect on cell growth relative to vehicle control: single administration of 5 μM, six days
Protocol: as §1, §2, §3

[4] = molecular target: 6×His-tagged HRas WT 1-166 (UniProt P01112); assay: in vitro pull-down: fluorescein-tagged peptide on 6×His-HRas 1-166 / Ni-NTA beads, in-gel fluorescence

T4 sequence (P01111 whole entry): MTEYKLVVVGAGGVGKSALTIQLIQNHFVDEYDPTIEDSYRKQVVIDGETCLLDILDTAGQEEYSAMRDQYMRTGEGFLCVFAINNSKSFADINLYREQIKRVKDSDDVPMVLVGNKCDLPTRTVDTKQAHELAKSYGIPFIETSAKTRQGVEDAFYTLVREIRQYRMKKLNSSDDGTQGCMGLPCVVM
T2 sequence (P01116 whole entry G12C): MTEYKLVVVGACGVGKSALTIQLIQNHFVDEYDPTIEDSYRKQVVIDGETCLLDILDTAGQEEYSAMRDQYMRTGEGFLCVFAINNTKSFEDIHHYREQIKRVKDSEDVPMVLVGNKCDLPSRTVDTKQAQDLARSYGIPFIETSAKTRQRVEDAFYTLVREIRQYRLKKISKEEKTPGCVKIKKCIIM

CC[C@H](C)[C@@H](CC(=O)N[C@@H](Cc1ccc(O)cc1)C(=O)N[C@@H](CCCNC(=N)N)C(=O)N[C@@H](CC(C)C)C(=O)N[C@@H](CCC(=O)O)CC(=O)N[C@@H](CC(C)C)C(=O)N[C@@H](CC(C)C)C(=O)N[C@@H](CCCCN)C(=O)N[C@@H](C)CC(=O)N[C@@H](CCC(=O)O)C(=O)N[C@@H](CCC(=O)O)C(=O)N[C@@H](C)C(=O)N[C@@H](CC(N)=O)C(N)=O)NC(=O)CN1CC=CCCCC(=O)N[C@@H](Cc2ccccc2)C(=O)N[C@@H](CCC(=O)O)C1=O [α3β-HBSSOS, ZFEG*iYRLeLLKaEEAN-NH2]
EC50 (Mia PaCa2; MIA PaCa-2): 144 ± 57 nM | EC50 (Mia PaCa2; Mia PaCa2, Kras G12D): 144 nM | EC50 (J82; J82, Ras WT, FGFR3 CA): 65.2 nM | EC50 (J82; J82): 65.2 ± 43 nM | EC50 (HCT116; HCT116, Kras G13C): 243 nM | EC50 (HCT116; HCT-116): 243 ± 44 nM | EC50 (BxPc3): 1180 nM | EC50 (CaCo2): 2670 nM | EC50 (SW780): 1450 nM | cells with 4N DNA content ([1]; mutant Ras cells (MIA PaCa-2, HCT-116, Umuc3, T24), 48 hours): accumulation | accumulation in the G2/M phase of the cell cycle ([1]; wild type Ras cell lines (SW780, BxPc3, J82)): do not accumulate | fold greater affinity than the all-α analog α-HBSSOS (HRas^(1-166)): 50 fold | Kd (HRas^(1-166); fluorescein-tagged peptides, 4° C., 1 hour): 220 ± 56 nM | DNA strand breaks and apoptosis (mutant Ras cells): increased levels | GTP-loading of oncogenic KRas (oncogenic KRas): diminished; also recorded: significantly reduced | GTP-loading of wild type HRas (wild type HRas): completely abrogated | GTP-loading of wild type NRas (wild type NRas): completely abrogated | inhibition of Sos-mediated Ras nucleotide exchange ([2]; 1 μM each of Ras, SOS, and the inhibitor): potent inhibitory effect | concentration giving inhibitory effect comparable to previously reported α-HBSSOS ([2]; relative to α-HBSSOS concentration): one-twentieth | effect on viability of the wild-type Ras group ([3]; CaCo2, SW780, and BxPc3): limited effects on viability | effect on cell growth relative to vehicle control [3]: inhibited the growth of all cell lines to varying degrees

CC[C@H](C)[C@@H](CC(=O)N[C@@H](Cc1ccc(O)cc1)C(=O)N[C@@H](CCCNC(=N)N)C(=O)N[C@@H](CC(C)C)C(=O)N[C@@H](CCC(=O)O)CC(=O)N[C@@H](CC(C)C)C(=O)N[C@@H](CC(C)C)C(=O)N[C@@H](CCCCN)C(=O)N[C@@H](C)CC(=O)N[C@@H](CCC(=O)O)C(=O)N[C@@H](CCC(=O)O)C(=O)N[C@@H](C)C(=O)N[C@@H](CC(N)=O)C(N)=O)NC(=O)CNC(=O)[C@H](CCC(=O)O)NC(=O)[C@H](Cc1ccccc1)NC(C)=O [α3β-UNCSOS, Ac-FEGiYRLeLLKaEEAN-NH2] (Ac-FEG[β3hI]YRL[β3hE]LLK[β3hA]EEAN-NH2)
fold weaker affinity than constrained counterpart α3β-HBSSOS (HRas^(1-166)): ~136 fold | GTP-loading of wild type HRas (wild type HRas): not | GTP-loading of wild type NRas (wild type NRas): not | effect on cell growth relative to vehicle control [3]: no effect on cell growth

CC[C@H](C)[C@H](NC(=O)CN1C/C=C\CCC(=O)N[C@@H](Cc2ccccc2)C(=O)N[C@@H](CCC(=O)O)C1=O)C(=O)N[C@@H](Cc1ccc(O)cc1)C(=O)N[C@@H](CCCNC(=N)N)C(=O)N[C@@H](CC(C)C)C(=O)N[C@@H](CCC(=O)O)C(=O)N[C@@H](CC(C)C)C(=O)N[C@@H](CC(C)C)C(=O)N[C@@H](CCCCN)C(=O)N[C@@H](C)C(=O)N[C@@H](CCC(=O)O)C(=O)N[C@@H](CCC(=O)O)C(=O)N[C@@H](C)C(=O)N[C@@H](CC(N)=O)C(N)=O [α-HBSSOS, reference compound]
effect on cell growth relative to vehicle control [3]: no effect on cell growth

ZAEG*iYRLeLLKaEAAA-NH2 [α3β-HBSMUT]
GTP-loading of wild type HRas (wild type HRas): not | GTP-loading of wild type NRas (wild type NRas): not | effect on cell growth relative to vehicle control [3]: no effect on cell growth

B1: α3β-HBSSOS-Flu (peptide)
peptide: FEGIYRLELLKAEEANK
modifications: not fully specified; printed as ZFEG*iYRLeLLKaEEANK(Flu)-NH2: Z = N-terminal 5-hexenoic acid residue; G* (position 3) = bridged allylglycine residue (hydrogen bond surrogate macrocycle between Z and G3); lowercase i (position 4), e (position 8), a (position 12) = β3-residues; K17 carries fluorescein (Flu); C-terminal amide
fold greater affinity than α-HBSSOS [4]: 50 fold
